Data published in the supplement of paper PMC10883282.
± gives the standard deviation of the averaged measurements.

Tested on: G401
Assay: relative viability vs DMSO control (72 h) (fraction); higher = more viable cells
Outline: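 Relative viability is percent growth read by ATPLite and averaged over up to triplicate wells. Sarcoma cells were seeded in 384-well plates to reach 80–90% confluence and given 2.5 µl of serially diluted compound after 24 h, from source plates of 10 mM to 0.0002 mM. Incubation lasted 72 h at 37 °C, 5% CO2, with 0.1% DMSO vehicle and a 5 µM positive control, and the data were rescaled so 1 equals full and 0 equals none.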

Compound | relative viability (0.00017 µM) | relative viability (0.00051 µM) | relative viability (0.00152 µM) | relative viability (0.00457 µM) | relative viability (0.01372 µM) | relative viability (0.04115 µM) | relative viability (0.1235 µM) | relative viability (0.3704 µM) | relative viability (1.111 µM) | relative viability (3.333 µM) | relative viability (10 µM)
CO[C@H]1C[C@@H]2CC[C@@H](C)[C@@](O)(O2)C(=O)C(=O)N2CCCC[C@H]2C(=O)O[C@H]([C@H](C)C[C@@H]2CC[C@@H](OP(C)(C)=O)[C@H](OC)C2)CC(=O)[C@H](C)/C=C(\C)[C@@H](O)[C@@H](OC)C(=O)[C@H](C)C[C@H](C)/C=C/C=C/C=C/1C [Ridaforolimus] | 0.919 ± 0.043 | 0.885 ± 0.03 | 0.841 ± 0.071 | 0.793 ± 0.068 | 0.751 ± 0.07 | 0.739 ± 0.056 | 0.744 ± 0.027 | 0.725 ± 0.019 | 0.712 ± 0.012 | 0.681 ± 0.017 | 0.645 ± 0.022
O=C(Cc1ccc(-c2ccc(OCCN3CCOCC3)cc2)cn1)NCc1ccccc1 [KX2-391] | 1.05 ± 0.047 | 1.05 ± 0.025 | 1.02 ± 0.033 | 1.05 ± 0.036 | 1.022 ± 0.0094 | 0.944 ± 0.027 | 0.555 ± 0.019 | 0.446 ± 0.013 | 0.421 ± 0.013 | 0.38 ± 0.014 | 0.368 ± 0.0095
COc1cc2nccc(Oc3ccc(NC(=O)Nc4cc(C)on4)c(Cl)c3)c2cc1OC [Tivozanib] | 1.01 ± 0.025 | 1.03 ± 0.035 | 1.04 ± 0.025 | 1.04 ± 0.019 | 1.04 ± 0.023 | 0.98 ± 0.044 | 0.992 ± 0.056 | 0.99 ± 0.021 | 0.965 ± 0.034 | 0.713 ± 0.019 | 0.381 ± 0.0095
CCc1cc2c(cc1N1CCC(N3CCOCC3)CC1)C(C)(C)c1[nH]c3cc(C#N)ccc3c1C2=O [Alectinib] | 0.947 ± 0.037 | 0.983 ± 0.023 | 0.977 ± 0.028 | 0.991 ± 0.037 | 0.981 ± 0.026 | 0.954 ± 0.029 | 1.01 ± 0.031 | 1.01 ± 0.056 | 1.03 ± 0.057 | 0.991 ± 0.039 | 0.894 ± 0.037
COCc1c(-c2cc3cc(C)cc(OC)c3s2)c2c(N)ncnn2c1CN1CCNC(=O)C1 [Rogaratinib] | 1.05 ± 0.015 | 1.06 ± 0.037 | 1.02 ± 0.031 | 1.01 ± 0.011 | 1.018 ± 0.0054 | 0.967 ± 0.038 | 0.8878 ± 0.0073 | 0.68 ± 0.015 | 0.592 ± 0.024 | 0.532 ± 0.043 | 0.375 ± 0.0068
CN1CCC(COc2cnc(-c3cccc(Cn4nc(-c5cccc(C#N)c5)ccc4=O)c3)nc2)CC1 [Tepotinib] | 1.02 ± 0.014 | 1.02 ± 0.015 | 1.012 ± 0.01 | 1.003 ± 0.0083 | 1.04 ± 0.018 | 1.04 ± 0.057 | 1.02 ± 0.013 | 1.01 ± 0.029 | 1 ± 0.015 | 0.9287 ± 0.0054 | 0.787 ± 0.02
Cc1cnc(Nc2ccc(OCCN3CCCC3)cc2)nc1Nc1cccc(S(=O)(=O)NC(C)(C)C)c1 [Fedratinib] | 1.029 ± 0.0083 | 1.05 ± 0.029 | 1.038 ± 0.0091 | 1.03 ± 0.019 | 1.04 ± 0.011 | 0.997 ± 0.024 | 0.919 ± 0.015 | 0.8157 ± 0.0074 | 0.499 ± 0.0075 | 0.204 ± 0.012 | 0.0136 ± 0.00091
Cn1cnc2c(F)c(Nc3ccc(Br)cc3F)c(C(=O)NOCCO)cc21 [Binimetinib] | 1.01 ± 0.025 | 1.05 ± 0.019 | 1.03 ± 0.033 | 1.01 ± 0.011 | 0.983 ± 0.023 | 0.904 ± 0.0051 | 0.886 ± 0.029 | 0.859 ± 0.021 | 0.782 ± 0.02 | 0.716 ± 0.046 | 0.584 ± 0.038
C[C@@H]1CCN(C(=O)CC#N)C[C@@H]1N(C)c1ncnc2[nH]ccc12 [Tofacitinib] | 1.07 ± 0.026 | 1.044 ± 0.0027 | 1.06 ± 0.027 | 1.02 ± 0.015 | 1.05 ± 0.012 | 1.05 ± 0.026 | 1.03 ± 0.035 | 1.07 ± 0.048 | 1.04 ± 0.045 | 1.06 ± 0.056 | 1.06 ± 0.037
Nc1cc(C(F)(F)F)c(-c2cc(N3CCOCC3)nc(N3CCOCC3)n2)cn1 [Buparlisib] | 0.957 ± 0.011 | 0.983 ± 0.013 | 0.932 ± 0.024 | 0.966 ± 0.022 | 1 ± 0.027 | 0.928 ± 0.041 | 0.86 ± 0.027 | 0.767 ± 0.037 | 0.594 ± 0.014 | 0.304 ± 0.005 | 0.237 ± 0.0068
Cn1cc(-c2cc3c(N4CCN(c5ncc([C@@](C)(N)c6ccc(F)cc6)cn5)CC4)ncnn3c2)cn1 [Avapritinib] | 0.895 ± 0.086 | 0.91 ± 0.036 | 0.907 ± 0.046 | 0.901 ± 0.023 | 0.922 ± 0.059 | 0.926 ± 0.074 | 0.918 ± 0.032 | 0.842 ± 0.033 | 0.701 ± 0.044 | 0.627 ± 0.012 | 0.506 ± 0.011
C=CC(=O)N1CCC([C@@H]2CCNc3c(C(N)=O)c(-c4ccc(Oc5ccccc5)cc4)nn32)CC1 [Zanubrutinib] | 0.964 ± 0.022 | 0.96 ± 0.023 | 0.99 ± 0.023 | 0.99 ± 0.024 | 0.946 ± 0.044 | 0.957 ± 0.031 | 0.957 ± 0.026 | 0.9805 ± 0.0066 | 0.932 ± 0.035 | 0.872 ± 0.029 | 0.801 ± 0.039
CCCS(=O)(=O)Nc1ccc(F)c(C(=O)c2c[nH]c3ncc(-c4ccc(Cl)cc4)cc23)c1F [Vemurafenib] | 1.01 ± 0.0022 | 1.02 ± 0.016 | 1.01 ± 0.017 | 1.004 ± 0.01 | 1.01 ± 0.024 | 1 ± 0.03 | 1.02 ± 0.0078 | 1.031 ± 0.0097 | 1.01 ± 0.011 | 1.01 ± 0.021 | 0.753 ± 0.023
COc1cc2c(Oc3ccc4[nH]c(C)cc4c3F)ncnc2cc1OCCCN1CCCC1 [Cediranib] | 0.97 ± 0.055 | 1.03 ± 0.015 | 0.993 ± 0.031 | 0.981 ± 0.059 | 0.995 ± 0.029 | 1.01 ± 0.024 | 0.95 ± 0.024 | 0.828 ± 0.013 | 0.47 ± 0.019 | 0.273 ± 0.02 | 0.00627 ± 0.0033
CC[C@H](Nc1ncnc2[nH]cnc12)c1nc2cccc(F)c2c(=O)n1-c1ccccc1 [Idelalisib] | 1.06 ± 0.034 | 1.07 ± 0.036 | 1.06 ± 0.051 | 1.05 ± 0.017 | 1.02 ± 0.032 | 0.998 ± 0.036 | 0.987 ± 0.042 | 0.965 ± 0.021 | 0.946 ± 0.013 | 0.877 ± 0.045 | 0.795 ± 0.023
Cc1cc(Nc2ncnc3ccc(NC4=NC(C)(C)CO4)cc23)ccc1Oc1ccn2ncnc2c1 [Tucatinib] | 1.03 ± 0.042 | 1.04 ± 0.039 | 1.02 ± 0.04 | 1.02 ± 0.037 | 1.01 ± 0.037 | 0.985 ± 0.036 | 1.02 ± 0.026 | 1.01 ± 0.026 | 1.01 ± 0.035 | 0.984 ± 0.025 | 0.985 ± 0.031
N#CC[C@H](C1CCCC1)n1cc(-c2ncnc3[nH]ccc23)cn1 [Ruxolitinib] | 0.971 ± 0.051 | 1.01 ± 0.037 | 1.01 ± 0.034 | 1 ± 0.026 | 1.02 ± 0.02 | 0.969 ± 0.039 | 0.99 ± 0.024 | 0.935 ± 0.047 | 0.942 ± 0.035 | 0.936 ± 0.025 | 0.824 ± 0.034
Cc1ccc(F)c(NC(=O)Nc2ccc(-c3cccc4[nH]nc(N)c34)cc2)c1 [Linifanib] | 1.03 ± 0.045 | 1.03 ± 0.087 | 0.996 ± 0.021 | 1.02 ± 0.02 | 1.01 ± 0.064 | 0.994 ± 0.01 | 0.956 ± 0.031 | 0.956 ± 0.048 | 0.928 ± 0.04 | 0.915 ± 0.013 | 0.9524 ± 0.0058
Cc1nc(NC(=O)N2CCC[C@H]2C(N)=O)sc1-c1ccnc(C(C)(C)C(F)(F)F)c1 [Alpelisib] | 1 ± 0.066 | 1.01 ± 0.04 | 0.993 ± 0.041 | 0.946 ± 0.075 | 0.939 ± 0.017 | 0.906 ± 0.079 | 0.864 ± 0.021 | 0.777 ± 0.036 | 0.697 ± 0.07 | 0.577 ± 0.053 | 0.504 ± 0.052
